How the values were obtained:
G13D = G13D (Homo sapiens, UniProt P01116, G13D); experiment: Guanine nucleotide exchange (GNE) assay, G13D; format: biochemical
Procedure: (§1) The TR-FRET signal is measured on an Envision (PerkinElmer) plate reader: Excitation filter=340 nm; emission 1=495 nm; emission 2=520 nm; dichroic mirror=D400/D505; delay time=100 ms. The signal of each well is determined as the ratio of the emission at 520 nm to that at 495 nm. […] The apparent effect as a function of compound concentration is fit to a four-parameter logistic equation to calculate IC50 values using Spotfire software.

[1] = system: AsPC-1 cells containing homozygous KRAS-G12D activating mutation (p-ERK); details: Homo sapiens, ASPC1, 2 h, read-out: KRAS G12D ASPC-1 IC50 (nM)
Procedure: Procedure for Cellular Phospho-ERK Assay, G12D
AsPC-1 cells (ATCC® CRL-1682™), containing homozygous KRAS-G12D activating mutation, were cultured in T150 flask in growth medium (RPMI medium 1640-GlutaMAX™—I (ThermoFisher Scientific 61870) containing 10% fetal bovine serum (ThermoFisher Scientific 10091148)). The cells were harvested in growth medium after TrypLE (ThermoFisher scientific 12604021) digestion and were seeded in a 384-well collagen coated cell culture plate (Corning 356702) at a density of 15,000 cells/well, and incubated at 37° C., 5% CO2 overnight. […] RPMI medium 1640-GlutaMAX™—I was added to the intermediate plate and the contents of the intermediate plate were then transferred to the 384-well collagen coated cell culture plate, which was incubated at 37° C., 5% CO2 for 2 hours. After removal of medium from the collagen coated cell culture plate, cells were lysed in lysis buffer from Alpha SureFire® Ultra™ Multiplex p-ERK and total ERK assay kit (PerkinElmer MPSU-PTERK) containing Halt™ Protease and Phosphatase inhibitor cocktail (ThermoFisher Scientific 78446) at room temperature with constant shaking at 300 rpm for 30 minutes. The cell lysates were then transferred to an OptiPlate-384 plate (PerkinElmer 6005620), and the phosphorylation of ERK (p-ERK) and total ERK levels were detected by Alpha SureFire® Ultra™ Multiplex p-ERK kit and total ERK assay kit (PerkinElmer MPSU-PTERK) following the manufacturer's protocol. Assay plates were read on a EnVision Multimode Plate Reader (PerkinElmer), and the ratio of p-ERK vs. total ERK in each well was used as the final readout. Dose response curves were analyzed using a 4-parameter logistic model to calculate IC50 values using Spotfire software.

[2] = system: NCI-H358 cells containing homozygous KRAS-G12C activating mutation (p-ERK); details: Homo sapiens, NCI-H358, 2 h, read-out: G12C H358 IC50 (nM)
Procedure: Procedure for Cellular Phospho-ERK Assay, G12C
NCI-H358 cells (ATCC® CRL-5807™), containing homozygous KRAS-G12C activating mutation, were cultured in T150 flask in growth medium (RPMI medium 1640-GlutaMAX™—I (ThermoFisher Scientific 61870) containing 10% fetal bovine serum (ThermoFisher Scientific 10091148)). The cells were harvested in growth medium after TrypLE (ThermoFisher scientific 12604021) digestion and were seeded in a 384-well collagen coated cell culture plate (Corning 356702) at a density of 15,000 cells/well, and incubated at 37° C., 5% CO2 overnight. […] RPMI medium 1640-GlutaMAX™—I was added to the intermediate plate and the contents of the intermediate plate were then transferred to the 384-well collagen coated cell culture plate, which was incubated at 37° C., 5% CO2 for 2 hours. After removal of medium from the collagen coated cell culture plate, cells were lysed in lysis buffer from Alpha SureFire® Ultra™ Multiplex p-ERK and total ERK assay kit (PerkinElmer MPSU-PTERK) containing Halt™ Protease and Phosphatase inhibitor cocktail (ThermoFisher Scientific 78446) at room temperature with constant shaking at 300 rpm for 30 minutes. The cell lysates were then transferred to an OptiPlate-384 plate (PerkinElmer 6005620), and the phosphorylation of ERK (p-ERK) and total ERK levels were detected by Alpha SureFire® Ultra™ Multiplex p-ERK kit and total ERK assay kit (PerkinElmer MPSU-PTERK) following the manufacturer's protocol. Assay plates were read on an EnVision Multimode Plate Reader (PerkinElmer), and the ratio of p-ERK vs. total ERK in each well was used as the final readout. Dose response curves were analyzed using a 4-parameter logistic model to calculate IC50 values using Spotfire software.
HRAS (SEQ ID NO: 4) = HRAS (SEQ ID NO: 4) (Homo sapiens, UniProt P01112); experiment: SOS-catalyzed guanine nucleotide exchange (GNE) assay, HRAS
Procedure: (§2) Specifically, the SOS-catalyzed nucleotide exchange assay utilizes a preformed time-resolved fluorescence resonance energy transfer (TR-FRET) complex containing a specific biotinylated RAS protein (KRAS-G12C/V/D, HRAS, NRAS; described above) with BODIPY-GDP, and Terbium-streptavidin. Test compounds are preincubated with this complex for 60 minutes.
(§3) To assemble the preformed TR-FRET complexes, each biotinylated RAS protein is diluted to 2 μM in an EDTA Buffer (20 mM HEPES, 50 mM sodium chloride, 10 mM EDTA, and 0.01% Tween) and incubated at room temperature for one hour. This mixture is then further diluted to 90 nM in an Assay Buffer (20 mM HEPES, 150 mM sodium chloride, 10 mM magnesium chloride, and 0.005% Tween) containing 15 nM of Terbium-Streptavidin (Invitrogen, catalog #PV3577) and 900 nM of BODIPY-GDP (Invitrogen, catalog #G22360) and incubated at room temperature for six hours. It should be noted that this preformed TR-FRET complex for each of the RAS proteins was made ahead of time, aliquoted and stored at −80° C. until the day of the experiment.
(§4) Once titrations are made, 10 nL of the diluted compounds is acoustically dispensed into a 384-well assay plate (Corning, catalog #3820) using an Echo 550 (Labcyte). Each well of the assay plate subsequently receives 3 μL of a specific 3× RAS preformed TR-FRET complex and 3 μL of Assay Buffer and is incubated at room temperature for 60 minutes (preincubation time). […] The final reaction in each well of 9 μL consists of 3 mM GTP, and the specific RAS and SOS proteins in the following concentrations: KRAS-G12C/SOS=3 nM/40 nM, KRAS-G12D/SOS=1 nM/40 nM, KRAS-G12V/SOS=1.25 nM/160 nM, HRAS/SOS=1.25 nM/40 nM, and NRAS/SOS=1.25 nM/40 nM.
as §1
NRAS (SEQ ID NO: 5) = NRAS (SEQ ID NO: 5) (Homo sapiens, UniProt P01111); experiment: SOS-catalyzed guanine nucleotide exchange (GNE) assay, NRAS
Procedure: as §2, §3, §4, §1

[3] = target: Recombinant KRAS-G12D (SEQ ID NO: 2) (Homo sapiens, UniProt P01116, G12D); experiment: SOS-catalyzed guanine nucleotide exchange (GNE) assay, KRAS-G12D
Procedure: as §2, §3, §4, §1

[4] = target: Recombinant KRAS-G12V (SEQ ID NO: 3) (Homo sapiens, UniProt P01116, G12V); experiment: SOS-catalyzed guanine nucleotide exchange (GNE) assay, KRAS-G12V
Chain of Recombinant KRAS-G12V (SEQ ID NO: 3) (P01116 with tags, fused parts or gaps isoform P01116-2 G12V): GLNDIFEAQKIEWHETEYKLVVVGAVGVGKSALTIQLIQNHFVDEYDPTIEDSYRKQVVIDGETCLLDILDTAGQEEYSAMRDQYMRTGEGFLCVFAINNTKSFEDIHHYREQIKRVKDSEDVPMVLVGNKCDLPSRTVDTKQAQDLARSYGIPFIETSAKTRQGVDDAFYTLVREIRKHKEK
Procedure: as §2, §3, §4, §1

Chain of G13D (P01116 1-188 isoform P01116-2 G13D): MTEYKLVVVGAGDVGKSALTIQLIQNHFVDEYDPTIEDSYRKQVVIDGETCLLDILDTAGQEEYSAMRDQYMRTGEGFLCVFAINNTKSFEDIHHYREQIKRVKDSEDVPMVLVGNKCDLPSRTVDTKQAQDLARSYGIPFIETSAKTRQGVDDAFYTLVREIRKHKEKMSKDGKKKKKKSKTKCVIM
Chain of NRAS (SEQ ID NO: 5) (P01111 with tags, fused parts or gaps): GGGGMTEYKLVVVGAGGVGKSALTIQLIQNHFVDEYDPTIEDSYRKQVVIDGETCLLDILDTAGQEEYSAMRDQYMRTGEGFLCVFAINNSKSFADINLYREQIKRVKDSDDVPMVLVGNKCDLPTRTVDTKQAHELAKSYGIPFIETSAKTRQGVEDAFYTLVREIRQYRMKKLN
Chain of Recombinant KRAS-G12D (SEQ ID NO: 2) (P01116 with tags, fused parts or gaps isoform P01116-2 G12D): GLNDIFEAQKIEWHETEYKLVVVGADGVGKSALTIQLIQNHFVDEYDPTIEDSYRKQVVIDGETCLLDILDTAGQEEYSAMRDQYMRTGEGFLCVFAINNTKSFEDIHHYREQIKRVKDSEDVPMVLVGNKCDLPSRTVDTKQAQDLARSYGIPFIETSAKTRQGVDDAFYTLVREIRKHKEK
Chain of HRAS (SEQ ID NO: 4) (P01112 with tags, fused parts or gaps): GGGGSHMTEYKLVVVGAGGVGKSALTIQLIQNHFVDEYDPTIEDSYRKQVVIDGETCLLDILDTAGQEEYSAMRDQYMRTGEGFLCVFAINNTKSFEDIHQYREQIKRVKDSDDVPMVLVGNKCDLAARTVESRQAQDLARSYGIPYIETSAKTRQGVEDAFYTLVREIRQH

C#Cc1cccc2cc(O)cc(-c3c(F)cc4c(N5CCC[C@@](C)(O)C5)nc(OC[C@@]56CCCN5C[C@H](F)C6)nc4c3F)c12 [Ex-42, (3R)-1-(7-(8-ethynyl-3-hydroxvnaphthalen-1-yl)-6,8-difluoro-2-(((2R,7aS)-2-fluorotetrahydro-1H-pyrrolizin-7a(5H)-yl)methoxy)quinazolin-4-yl)-3-methylpiperidin-3-ol]
IC50 (G13D): 4 nM | IC50 [1]: 91 nM | IC50 [2]: 58 nM | IC50 (HRAS (SEQ ID NO: 4)): > 10000 nM | IC50 (NRAS (SEQ ID NO: 5)): > 10000 nM | IC50 [3]: 3 nM | IC50 [4]: 3 nM

Source: patent US20260200925A1, “SMALL MOLECULE INHIBITORS OF KRAS MUTATED PROTEINS” (MERCK SHARP & DOHME LLC, priority 2021, published 2026)
